Values quoted from earlier work as cited in US20190358212A1, “USES OF EGFR/HER2 INHIBITOR COMBINED WITH PYRIMIDINE-TYPE ANTI-METABOLIC DRUG” (Jiangsu Hengrui Medicine Co., Ltd., priority 2017, published 2019).

Columns and labels:
EGFR = EGFR (Homo sapiens, UniProt P00533); conditions: CN102471312A
HER2 = HER2 (Homo sapiens, UniProt P04626); conditions: CN102471312A
[1] = tested on: HER2+ metastatic breast cancer; conditions: J Clin Oncol 33, 2015 (suppl; abstr e11596)

HER2, sequence (P04626 23-1255): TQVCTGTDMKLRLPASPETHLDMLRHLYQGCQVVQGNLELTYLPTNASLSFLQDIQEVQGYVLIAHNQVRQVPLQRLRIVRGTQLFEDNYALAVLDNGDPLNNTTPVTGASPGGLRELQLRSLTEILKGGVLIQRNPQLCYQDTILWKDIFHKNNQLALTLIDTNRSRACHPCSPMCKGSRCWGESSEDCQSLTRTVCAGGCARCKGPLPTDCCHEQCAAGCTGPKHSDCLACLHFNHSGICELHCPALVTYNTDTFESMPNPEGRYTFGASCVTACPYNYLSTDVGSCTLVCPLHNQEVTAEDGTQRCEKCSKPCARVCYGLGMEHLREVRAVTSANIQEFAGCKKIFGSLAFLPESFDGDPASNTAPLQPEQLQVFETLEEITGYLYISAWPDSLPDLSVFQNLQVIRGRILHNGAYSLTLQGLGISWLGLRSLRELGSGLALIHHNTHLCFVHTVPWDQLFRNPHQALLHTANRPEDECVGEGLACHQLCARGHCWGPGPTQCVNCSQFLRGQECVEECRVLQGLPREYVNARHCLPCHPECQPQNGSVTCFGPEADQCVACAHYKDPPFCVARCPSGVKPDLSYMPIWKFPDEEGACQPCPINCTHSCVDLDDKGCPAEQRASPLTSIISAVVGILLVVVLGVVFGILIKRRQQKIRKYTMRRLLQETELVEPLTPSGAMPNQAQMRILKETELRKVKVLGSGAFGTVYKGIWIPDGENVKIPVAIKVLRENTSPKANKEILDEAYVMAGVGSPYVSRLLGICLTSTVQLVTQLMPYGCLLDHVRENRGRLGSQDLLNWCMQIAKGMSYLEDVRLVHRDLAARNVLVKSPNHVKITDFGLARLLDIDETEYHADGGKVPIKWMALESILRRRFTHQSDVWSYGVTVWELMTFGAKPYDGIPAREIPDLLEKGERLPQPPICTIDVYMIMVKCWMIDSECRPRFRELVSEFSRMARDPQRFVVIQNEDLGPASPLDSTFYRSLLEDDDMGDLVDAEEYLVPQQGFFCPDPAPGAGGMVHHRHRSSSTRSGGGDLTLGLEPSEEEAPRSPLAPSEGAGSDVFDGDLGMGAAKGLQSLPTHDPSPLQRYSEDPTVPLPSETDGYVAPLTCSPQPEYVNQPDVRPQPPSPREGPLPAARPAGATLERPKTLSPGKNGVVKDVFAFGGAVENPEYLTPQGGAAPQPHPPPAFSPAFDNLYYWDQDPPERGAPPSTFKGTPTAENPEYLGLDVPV
EGFR, sequence (P00533 25-1210): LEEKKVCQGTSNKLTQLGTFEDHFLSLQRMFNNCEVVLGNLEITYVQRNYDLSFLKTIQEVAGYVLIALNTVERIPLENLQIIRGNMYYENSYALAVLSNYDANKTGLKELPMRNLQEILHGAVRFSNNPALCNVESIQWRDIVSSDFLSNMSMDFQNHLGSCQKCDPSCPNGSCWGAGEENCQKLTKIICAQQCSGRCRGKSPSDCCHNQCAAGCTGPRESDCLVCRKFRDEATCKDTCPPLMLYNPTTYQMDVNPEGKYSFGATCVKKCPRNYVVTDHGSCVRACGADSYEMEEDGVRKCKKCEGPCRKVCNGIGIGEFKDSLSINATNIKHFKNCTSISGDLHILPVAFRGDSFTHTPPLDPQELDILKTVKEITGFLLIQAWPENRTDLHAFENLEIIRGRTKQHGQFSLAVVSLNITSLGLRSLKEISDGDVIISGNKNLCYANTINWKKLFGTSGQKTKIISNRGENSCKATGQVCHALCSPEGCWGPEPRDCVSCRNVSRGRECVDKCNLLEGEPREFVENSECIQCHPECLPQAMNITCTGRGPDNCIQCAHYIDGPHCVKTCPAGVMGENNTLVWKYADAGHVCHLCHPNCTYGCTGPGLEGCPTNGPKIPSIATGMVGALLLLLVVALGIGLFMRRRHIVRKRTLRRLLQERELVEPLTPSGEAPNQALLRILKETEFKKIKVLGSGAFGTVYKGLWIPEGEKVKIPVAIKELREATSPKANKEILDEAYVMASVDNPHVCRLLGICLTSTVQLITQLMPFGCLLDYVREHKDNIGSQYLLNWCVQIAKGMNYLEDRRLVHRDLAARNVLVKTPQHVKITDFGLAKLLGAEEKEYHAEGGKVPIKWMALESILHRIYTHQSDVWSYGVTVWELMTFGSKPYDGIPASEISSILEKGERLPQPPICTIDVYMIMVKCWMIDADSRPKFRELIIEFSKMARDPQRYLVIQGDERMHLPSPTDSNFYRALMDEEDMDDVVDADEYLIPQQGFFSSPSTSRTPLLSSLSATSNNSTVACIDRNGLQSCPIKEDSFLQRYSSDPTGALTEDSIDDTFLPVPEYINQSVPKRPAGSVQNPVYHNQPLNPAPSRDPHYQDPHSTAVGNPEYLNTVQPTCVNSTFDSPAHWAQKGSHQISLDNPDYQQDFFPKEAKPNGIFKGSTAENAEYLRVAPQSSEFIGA

inhibition effect on EGFR (EGFR): potent inhibition effect | inhibition effect on HER2 (HER2): potent inhibition effect
SMILES: CCOc1cc2ncc(C#N)c(Nc3ccc(OCc4ccccn4)c(Cl)c3)c2cc1NC(=O)/C=C/[C@H]1CCCN1C [Compound A, (E)-N-[4-[[3-chloro-4-(2-pyridylmethoxy)phenyl]amino]-3-cyano-7-ethoxy-6-quinolyl]-3-[(2R)-1-methylpyrrolidin-2-yl]prop-2-enamide]
effect on patients with HER2+ metastatic breast cancer [1]: a certain effect
